Test results from article PMC10799709, “Characterization of a New Immunosuppressive and Antimicrobial Peptide, DRS-DA2, Isolated from the Mexican Frog, Pachymedusa dacnicolor” (International Journal of Inflammation, 2024).
≈ marks a conversion by molar mass, not a printed value. Peptide text beside a SMILES is read from it.

Assays:
[1] = tested on: Jurkat E6-1 cells; experiment: Apoptosis/necrosis assay (annexin V / eFluor 780); assay type: cell-based; conditions: Jurkat E6-1, 5 µM, 2 hours
Procedure: Induction of apoptosis or necrosis by the peptides was tested by incubating 5.10^5 Jurkat E6-1 cells in 200 µl RPMI containing 10% FBS and […] with the peptides at 5 µM for 2 hours at 37°C, 5% CO2. A positive control was obtained by exposing the cells to UV light for 10 min (1 mJ/cm^2, Stratagene UV Stratalinker 2400), before incubating them for 4 hours at 37°C, 5% CO2, RPMI 10% FBS. Cells were then washed, centrifuged, resuspended, and incubated 30 min at 4°C in the dark with Viability dye 780 (BioLegend). After washing the cells, Annexin-V-FITC in annexin-binding buffer was added, and the cells were incubated for 15 minutes at room temperature in the dark. The cells were fixed with PFA at a final dilution of 2% before being analyzed by FACSCanto flow cytometry.

[2] = tested on: human leukocytes; experiment: Cytotoxic assay on human leukocytes (viability dye, flow cytometry); assay type: cell-based; conditions: 2 h, various concentrations
Description: (§1) Human leukocytes were provided by the « Banco de Sangre del Hospital Regional del IMSS » and the Centro Estatal de la Transfusión Sanguínea in Cuernavaca, Morelos, Mexico. Institutional committees approved the acquisition and isolation of human peripheral blood leukocytes. Human leukocytes and erythrocytes were obtained as previously described. Mouse bone marrow cells (MBMCs) and erythrocytes were obtained from C57BL/6 or Balb/c mice. Mouse epithelial cells were isolated from C57Bl/6 mice, and human epithelial cells were recovered from surgery residues. In brief, intestinal tissues were minced and digested in 450-U/mL collagenase I, 125-U/mL collagenase XI, 60-U/mL hyaluronidase, and 60-U/mL DNAse for 1 hour before gradient density centrifugation on Histopaque-1083 (Sigma-Aldrich, St. Louis, MO). […]
(§2) 5.10^5 mouse or human leukocytes or primary epithelial cells, A549 or Jurkat E6-1 cells, were incubated in 100 µl RPMI or DMEM containing 0.5% BSA and […] with the peptides at different concentrations for 2 hours at 37°C, 5% CO2. […] Viability of leukocytes and Jurkat cells was determined by adding a viability dye (eFluor 780) and counted by FacsCanto flow cytometry with a predetermined number of beads (Polybead, Carboxylate Microspheres, Polysciences, Inc., Le Perray-en-Yvelines, France) added to the samples. […] Data were analyzed with FlowJo.

[3] = tested on: C57BL/6 mice; experiment: Thioglycolate-induced peritoneal inflammation (noninfectious peritonitis); assay type: in vivo, mouse; conditions: thioglycolate 3% i.p., 15 µg/injection i.p. at 14, 19 and 24 h, flow cytometry
Procedure: C57BL/6 mice were injected intraperitoneally with 1 mL 3% (wt/vol) thioglycolate (Sigma-Aldrich, l'Ile d'Abeau, France) dissolved in sterile NaCl and then 14, 19, and 24 hours later injected i.p. with DRS-DA2N or DRS-DA2NEQ (15 µg/injection). NaCl was used as a negative control. Twelve hours after the last injection, mice were killed, and 3 mL of cold PBS was injected i.p. to harvest peritoneal cells, which were then stained with anti-mouse Ly6G-PE, anti-mouse NK1.1-PE, anti-mouse CD11b-PerCP, and anti-mouse F4/80-APC (BD Biosciences, Rungis, France). Blood and bone marrow were also collected and stained with the same antibodies. Cells and beads were then counted by FACSCalibur flow cytometry, and data were analyzed with FlowJo. Cells being CD11b^hiLy6G^−NK1.1^− are considered to be monocytes (Mo), CD11b^hiLy6G^−NK1.1^− F4/80^+ macrophages (MΦ), and CD11b^hiLy6G^+NK1.1^− neutrophils (PMN).

[4] = tested on: Gram-positive and Gram-negative strains; experiment: Antibacterial properties on a series of strains; assay type: cell-based
Procedure: (§3) The minimum inhibitory concentration (MIC) was determined by a liquid test in 96-well microplates as previously described. 100 µL of the sample to be tested was distributed in triplicate to obtain a range of final concentrations from 100 to 0.2 µM in the wells. 90 µL of bacterial suspension (5 × 10^5 CFU/mL for Gram-negative bacteria and 5 × 10^5 CFU/mL for Gram-positive strains in Mueller–Hinton broth) were added to each well [14]. The microtiter plates were incubated at 37°C overnight. The optical density of the wells was measured at […], and the results were interpreted by calculating the percentage of growth in each well according to the formula: % growth = (OD600 well − OD600 T0)/(OD600 of T100 − OD600 T0) ∗ 100, where OD600 T100 = DO600 growth control (bacterial suspension without the test sample, 100% growth), OD600 T0 = OD600 of sterility control (culture medium + […] 10 µL formaldehyde, 0% growth) well, and OD600 = OD600 of the well which was desired to calculate the percentage of growth (+ bacterial suspension test sample). MIC is the minimum concentration of the peptide that inhibits bacterial growth after incubation at 37°C for 20 hours.
The minimum bactericidal concentration (MBC) is defined as the minimum concentration of the peptide killing 99.9% of bacteria after incubation at 37°C for 20 hours. […]

[5] = Circular dichroism, percentage of helicity; assay type: physicochemical; conditions: POPE: POPG (75 : 25) LUVs, peptide/lipid 1/50, 10 mM Tris pH 7.4
Procedure: The CD spectra of the peptides were recorded as previously described. Measurements were carried out in 10 mM Tris buffer at pH 7.4 and in the presence of POPC, POPG, and POPG-POPC (25 : 75) LUVs or POPG-POPE (25 : 75) LUVS to mimic E. coli inner membrane composition at a peptide/lipid molar ratio of 1/50. Dichroic spectra were corrected by subtracting the background obtained for each peptide-free solution. An analysis of CD spectra was conducted after smoothing, and conversion to molar ellipticity was calculated as follows: […], where θobs is the observed ellipticity, n is the number of bonds, c is the peptide concentration in mol. L^−1, and l is the path length in cm.

[6] = tested on: mouse leukocytes; experiment: Cytotoxic assay on mouse leukocytes (viability dye, flow cytometry); assay type: cell-based; conditions: 2 h, various concentrations
Description: as §1, §2

[7] = tested on: S. aureus ATCC 700699 (MecA+); experiment: Antibacterial activity on skin multiresistant bacteria; assay type: cell-based; conditions: Staphylococcus aureus, ATCC700699
Procedure: as §3

[8] = tested on: S. epidermidis ST20140436 (MecA+); experiment: as above; assay type: cell-based; conditions: Staphylococcus epidermidis
Procedure: as §3

[9] = tested on: Acinetobacter johnsonii (carbapenemase); experiment: as above; assay type: cell-based
Procedure: as §3

[10] = tested on: Propionibacterium acnes (clinical isolate), first listed; experiment: as above; assay type: cell-based; conditions: Cutibacterium acnes, first listed (r7)
Procedure: as §3

[11] = tested on: Propionibacterium acnes (clinical isolate), second listed; experiment: as above; assay type: cell-based; conditions: Cutibacterium acnes, second listed (r8)
Procedure: as §3

[12] = ANTS/DPX leakage assay; conditions: POPE/POPG (75 : 25) LUVs, 0.5 mM lipid, from Figure 10(c)
Procedure: The lipids 1-palmitoyl-2-oleoyl-sn-glycero-3-phospho-(1′-rac-glycerol) (POPG) and 1-palmitoyl-2-oleoyl-sn-glycero-3-phosphoethanolamine (POPE) were obtained from Avanti Polar Lipids, Inc., and used without further purification. Desired mixtures of phospholipids were first dried in glass tubes under nitrogen and then maintained under reduced pressure for at least 60 min. Lipid films were subsequently hydrated in PBS to yield a lipid concentration. The resulting dispersions were subjected to 5 freeze-thaw cycles by alternately placing the sample vial in a liquid nitrogen bath and a warm water bath (40°C). […]
The vesicles of POPE/POPG (75/25) at 25 mM concentration were obtained as previously described and suspended in a solution of 12.5 mM ANTS and 45 mM DPX in 10 mM HEPES. […] Final lipid concentration was measured by the method of Rouser.
To measure the leakage of DPX, the vesicles were diluted to a concentration of 0.5 mM lipid. […] ANTS fluorescence was monitored using a fluorimeter (excitation = 350 nm; emission = 530 nm) or a fluorescence plate reader (excitation filter wavelength/bandpass = 340/11; emission 530/25.
Fractional leakage was calculated as (Fsample − Finitial)/(Flysed−Finitial).

[13] = tested on: E. coli ATCC8739; experiment: Time-kill assay; assay type: cell-based; conditions: E. coli ATCC8739, peptide at its MIC concentration, 37°C, CFU counting
Procedure: Time-killing experiments were achieved according to [18, 19] with minor modifications. The peptide's concentration was 1 × MIC and 2 × MIC. At the time points of 15, 30, 45, and 60 min and after homogenization, suspensions were diluted in 10 mM sodium phosphate buffer (pH 6.8) and spread onto MH agar plates. After overnight incubation at room temperature, CFUs were counted.

Compound: CSCC[C@H](NC(=O)[C@H](C)NC(=O)[C@H](C)NC(=O)[C@H](CCCCN)NC(=O)[C@@H](NC(=O)[C@H](CC(C)C)NC(=O)[C@@H](NC(=O)[C@H](CC(N)=O)NC(=O)CNC(=O)[C@@H](N)CCCCN)C(C)C)C(C)C)C(=O)N[C@@H](CC(C)C)C(=O)N[C@H](C(=O)N[C@@H](CCCCN)C(=O)N[C@H](C(=O)N[C@@H](CC(C)C)C(=O)N[C@@H](C)C(=O)N[C@@H](CCCCN)C(=O)N[C@@H](CC(N)=O)C(=O)N[C@@H](CCCCN)C(=O)NCC(=O)N[C@H](C(=O)N[C@@H](CCC(N)=O)C(=O)N[C@@H](CC(N)=O)C(=O)N[C@@H](C)C(=O)N[C@@H](CC(N)=O)C(=O)N[C@@H](C)C(=O)N[C@@H](CC(C)C)C(=O)N[C@H](C(=O)N[C@@H](Cc1c[nH]c2ccccc12)C(=O)O)[C@@H](C)O)C(C)C)C(C)C)[C@@H](C)O [Scr] (H-KGNVLVKAAMLTKVLAKNKGVQNANALTW-OH; N-terminus and C-terminus assumed)
- cell death [1]: < 4%
- cells alive (A−V−) [1]: more than 96%
- induction of death of leukocyte populations [2]: did not induce the death
- egress of inflammatory cells from the bone marrow and increase in blood after induction of peritonitis (systemic effect) [3]: conserved
- bacterial activity [4]: did not exhibit any bacterial activity
- percentage of helicity (CD) [5]: remained unstructured
- induction of death of leukocyte populations [6]: did not induce the death

Compound: CC1(C)S[C@@H]2[C@H](NC(=O)[C@H](N)c3ccc(O)cc3)C(=O)N2[C@H]1C(=O)O [amoxicillin]
- MIC [7]: > 43.8 µM
- MIC [8]: > 43.8 µM

Compound: CC(C)(O/N=C(\C(=O)N[C@@H]1C(=O)N2C(C(=O)[O-])=C(C[n+]3ccccc3)CS[C@H]12)c1csc(N)n1)C(=O)O [ceftazidime]
- MIC [9]: > 29.3 µM

Compound: C[C@H]1c2cccc(O)c2C(=O)C2=C(O)[C@]3(O)C(=O)C(C(N)=O)=C(O)[C@@H](N(C)C)[C@@H]3[C@@H](O)[C@@H]21 [doxycycline]
- MIC [10]: 0.13 µM (≈ 0.0578 µg/mL)
- MIC [11]: 0.27 µM (≈ 0.12 µg/mL)

Compound: omiganan
- LIC50 (peptide concentration required to induce 50% leakage) [12]: No leakage
- incubation time after which all the bacteria were killed [13]: needed a much longer time to be active
